Test results from US6656912B2, “Methods to treat α1-antitrypsin deficiency” (Washington University in St. Louis, priority 2000, dated 2003).
Where a SMILES comes first, the peptide text is derived from it. The star is where a group is joined. Cbz = O=C(OCc1ccccc1)*

Columns and labels:
[1] = tested on: α1-ATZ mutant antitrypsin produced by human fibroblast cell line CJZ12B; assay: Pulse-chase: disappearance of α1-ATZ from cell lysate and secretion into medium; assay type: cell-based; conditions: for effect on amount of secreted α1-ATZ / effect on degradation / intracellular retention of α1-ATZ / molecular weight of intracellular and secreted protein / fraction of α1-ATZ secreted: DMJ 1 mM, KIF 0.3 mM; for effect on amount of secreted α1-ATZ / effect on degradation / intracellular retention of α1-ATZ: DIM 1 mM, vs control; for fraction of α1-ATZ secreted: control 0.11; for disappearance of α1-ATZ from the cell lysate vs control / secretion of the 55 kD α1-ATZ into the medium: glucosidase inhibitors, pulse-chase in presence of drug
Procedure: (§1) The human fibroblast cell line CJZ12B which has been transduced with anthotropic recombinant retroviral particles to result in stable production of α1-ATZ mutant antitrypsin (Gross, V., et al., Biochem. J. (1986) supra) is used to produce α1-ATZ. The α1-ATZ mutant produced is labeled by adding 350-400 μCi TRAN^35S label to the medium.
The procedure of Example 1 was repeated except that after the incubation with label, the cells producing α1-ATZ were “chased” for various time intervals still in the presence of drug. At these time intervals, extracellular fluid and cell lysates were clarified, immunoprecipitated and analyzed by 8-10% SDS PAGE as previously described. (Wu, Y., et al., PNAS (1994) supra).
The pulse-chase experiments of Example 2 were repeated with the mannosidase inhibitors DMJ (1 mM) KIF (0.3 mM) and DIM (1 mM). In the presence of DMJ or KIF, the intracellular and secreted protein both have molecular weights of 52 kD. […] The half-life for disappearance of α1-ATZ from the lysate in the control is 0.95 hours and the fraction secreted is 0.11. […] (Control values were slightly different in this latter experiment.) There was no effect of DIM on degradation or secretion.

[2] = tested on: α1-ATZ mutant antitrypsin produced by human fibroblast cell line CJZ12B; assay: Electrophoretic mobility of immunoprecipitated α1-ATZ from drug-treated, 35S-labeled cells (SDS-PAGE); assay type: cell-based; conditions: for migration of α1-ATZ compared to the 52 kD trimmed form: mannosidase inhibitors, tested as in Example 1; for migration of precipitated α1-ATZ / estimated molecular weight of the protein from treated cultures: 100 μg/ml CST or 3 mM MDNJ; for migration of precipitated α1-ATZ: 1 hour preincubation, 1.5 hours label, vs control medium; for estimated molecular weight of the protein from treated cultures: untreated form 52 kD
Excerpt: as §1
It has previously been shown that α1-ATZ mutant migrates at 52 kD in electrophoretic studies. It is believed this form is an intermediate with high mannose-type oligosaccharide side chains (Wu, Y., et al., PNAS (1994) supra). The α1-ATZ producing cell line of Preparation A was incubated for 1 hour in control serum-free medium or in serum-free medium supplemented with 100 μg/ml CST or 3 mM MDNJ. The cells were then labeled with TRAN^35S for 1.5 hours maintaining the presence of the drugs. The antitrypsin fraction was immunoprecipitated from the cell lysates, resolved by 10% SDS-PAGE and detected with the Phosphorimager system. […] The estimated molecular weight of the protein from treated cultures is 55 kD.
The effect of the mannosidase inhibitors KIF (mannosidase I), DMJ (mannosidase I and II) and an additional inhibitor, DIM (mannosidase II) on electrophoretic mobility was tested as described in Example 1.

[3] = tested on: α1-ATZ secreted by CJZ12B cells; assay: endoH / PNGaseF digestion of α1-ATZ secreted by treated CJZ12B cells; assay type: cell-based, human; conditions: product of drug-treated CJZ12B cells
Excerpt: Wild type α1-AT is secreted from HepG2 cells with a molecular weight of 55 kD. It is resistant to digestion with endoH but is cleaved to a 46 kD polypeptide by PNGaseF.
EndoH is glycolytic only for high mannose […] carbohydrate glycosylation chains; PNGaseF cleaves any carbohydrate and would be expected to degrade the glycosylation side chains of any glycoprotein.
This 55 kD α1-ATZ polypeptide was cleaved to 46 kD by PNGaseF.
The peptide secreted by KIF treated CJZ12B cells was cleaved both by endoH and PNGaseF to a 46 kD product.

[4] = tested on: neutrophil elastase; assay: Complex formation of secreted α1-ATZ with neutrophil elastase; assay type: cell-based; conditions: medium at 6 hours of chase, KIF (0.3 mM), DMJ (1 nM) or CST (100 μg/ml); for amount of elastase at which complexes start to form / amount of elastase for complete conversion to complexes: 30 minutes at 37°
Procedure: Both HepG2 cells, secreting wild type antitrypsin, and CJZ12B cells, which secrete the mutant, were subjected to pulse-chase conditions as described, for example, in Example 2. The mutant-secreting cells were treated with KIF (0.3 mM) DMJ (1 nM) or CST (100 μg/ml). The extracellular media from the 6 hours time point of the chase period were harvested and then incubated for 30 minutes at 37° with neutrophil elastase at various concentrations. The reaction mixtures were then immunoprecipitated with anti-antitrypsin and resolved by SDS PAGE.

[5] = tested on: α1-ATZ complexes with calnexin and GRP78/BiP; assay: Co-immunoprecipitation of α1-ATZ with chaperones from microsomes; assay type: biochemical
Procedure: The procedure was repeated with 100 μg/ml CST present throughout and the microsomes were homogenized under nondenaturing conditions and immunoprecipitated with antibodies to calnexin and to a different chaperone, GRP78/BiP. The 52 kD form in the control was precipitated by anti-calnexin but the complex disappears between 30-45 minutes of the chase period. […] On the other hand, the 55 kD protein characteristic of the sample which includes CST is precipitated by anti-GRP78/BiP. This complex, too, disappears rapidly.

[6] = tested on: α1-ATZ; assay: Cell-free ER degradation of α1-ATZ (reticulocyte lysate with canine pancreatic microsomes); assay type: biochemical
Procedure: This system was described by Qu, D., et al., J. Biol. Chem. (1996) 271:22791-22795 cited above. In general, reticulocyte lysate cell free system supplemented with canine pancreatic microsomes was programmed with purified α1-ATZ mRNA over 60 minutes at 30° C. The microsomes were then isolated by centrifugation and incubated in a proteolysis-primed lysate at 37° for various time intervals. Aliquots were taken and the samples resolved on 10% SDS-PAGE gels.
To test the effect of drug, the reaction mixture was pre-incubated for 10 minutes at 30° C. in the absence of CST or in the presence of 100 μg/ml CST. α1-ATZ mRNA and ^35S-labeled methionine were added and translation conducted for 60 minutes at 30° C. in the absence or presence of CST. After co-translational translocation of α1-ATZ into the microsomes, the microsomes were harvested by centrifugation and the pellets suspended in […] of proteolysis-primed lysate with or without CST. The samples were incubated at 37° C. and aliquots analyzed at various time intervals.

[7] = 100 μg/ml CST present throughout

SMILES | effect on amount of secreted α1-ATZ [1] | effect on degradation / intracellular retention of α1-ATZ [1] | migration of α1-ATZ compared to the 52 kD trimmed form [2] | molecular weight of product after PNGaseF cleavage [3] | molecular weight of product(s) after endoH treatment [3] | sensitivity of secreted α1-ATZ to endoH [3] | molecular weight of intracellular and secreted protein [1] | fraction of α1-ATZ secreted [1] | molecular weight of α1-ATZ-elastase complexes [4] | amount of elastase at which complexes start to form [4] | amount of elastase for complete conversion to complexes [4] | migration of precipitated α1-ATZ [2] | estimated molecular weight of the protein from treated cultures [2] | disappearance of α1-ATZ from the cell lysate vs control [1] | secretion of the 55 kD α1-ATZ into the medium [1] | also measured
OC[C@@H](O)[C@@H]1NC[C@@H](O)[C@H]1O [DIM] | no effect | no effect | – | – | – | – | – | – | – | – | – | – | – | – | – | –
O=C1N[C@@H]2[C@@H](O)[C@@H](O)[C@H](O)[C@@H](CO)N2C1=O [KIF, kifunensine] | increase | retained intracellularly for a longer period of time | somewhat slower migration | 46 kD | 46 kD | cleaved | 52 kD | 0.31 | 70 kD | 0.5 µg | 2 µg | – | – | – | – | –
O[C@H]1[C@H](O)[C@@H](O)CN2CC[C@H](O)[C@H]12 [CST, castanospermine] | – | – | – | 46 kD | 46 kD, 48 kD, and 52 kD | partial sensitivity | – | – | 75 kD | 0.5 µg | 2 µg | migrates more slowly | 55 kD | same rate | increase | precipitation of 55 kD α1-ATZ by anti-GRP78/BiP [5, 7]: precipitated; precipitation of α1-ATZ by anti-calnexin [5, 7]: Little if any precipitate; total α1-ATZ co-precipitated with the anti-GRP78/BiP antibody ([5]; CST present, estimated): 5-10%; newly synthesized 55 kD protein secreted into the medium ([1]; 100 μg/ml CST, by 6 hours of chase, untreated control 17%): 31%; time at which 55 kD protein disappears from the cell lysate ([1]; 100 μg/ml CST, chase): 2 to 4 h; time at which the 55 kD form begins to disappear ([6]; 100 μg/ml CST from pre-incubation on, 37° C., control 15-30 minutes): > 30 min; time at which disappearance is complete ([6]; 100 μg/ml CST from pre-incubation on, 37° C., control 30-45 minutes): 45 to 90 min; disappearance rate of the 52 kD form ([6]; CST added only during the chase period): same disappearance rate as the control
OC[C@H]1NC[C@@H](O)[C@@H](O)[C@@H]1O [DMJ, deoxymannojirimycin] | increase | retained intracellularly for a longer period of time | somewhat slower migration | – | – | – | 52 kD | 0.28 | 70 kD | 0.5 µg | 2 µg | – | – | – | – | –
CC(C)C[C@@H](C=O)NC(=O)[C@H](CC(C)C)NC(=O)[C@H](CC(C)C)NC(=O)OCc1ccccc1 [MG132] (Cbz-Leu-Leu-Leu-aldehyde) | – | – | – | – | – | – | – | – | – | – | – | – | – | – | – | effect on alternate degradation pathway of untrimmed α1-ATZ ([6]; CST present): inhibited
CN1C[C@H](O)[C@@H](O)[C@H](O)[C@H]1CO [MDNJ, N-methyldeoxynojirimycin] | – | – | – | – | – | – | – | – | – | – | – | migrates more slowly | 55 kD | accelerated over control | no secretion | –
